Laboratory results as given in patent publication US10183032B2, “Methods for treating bacterial infection” (Ball State Innovation Corporation, priority 2012, dated 2019).

Experiments:
[1] = tested on: Staphylococcus aureus; assay: Staphylococcus aureus host cell invasion assay in HUVEC, flow cytometry; type: cell-based; details: HUVEC; for Internalized bacteria (% control ± SEM), Structural analog: 10 μM in PEG, 18-20 hours prior to infection, fluorescently labeled S. aureus 1 hour; for inhibition of invasion compared with ML 141 (Table 1): 10 μM, flow cytometry; for activity at 10 µM: Staphylococcus aureus, 1 h, read-out: Internalized bacteria (% control ± SEM), Structural analog
Experimental: In one embodiment, human umbilical vein endothelial cells (HUVEC, Life Technologies) are cultured in M200 medium supplemented with LSGS. RAW 264.7 cells (American Type Culture Collection, ATCC, Manassas, Va.) are cultured in RPMI supplemented with 10% FBS and L-glutamine. All cell types are maintained at 5% CO2, 37° C., in 75 cm^2 vented cap flasks (Thermo-Fisher). For assays, cultured cells are plated at 1×10^5 cells/ml in 35 mm culture dishes coated with Attachment Factor. The next day, cells are pretreated in culture medium containing the vehicle control or ML 141. For compound delivery, ML 141 first is suspended into DMSO or into PEG at a concentration of 5 mM. The 5 mM solution is diluted to 1 mM in the solvent and then diluted to the final concentration for each experiment in either serum-containing or serum-free medium. For vehicle control treatment, the same volume of PEG or DMSO as that of ML 141 is added to medium. The following day, the invasion assay is performed. For the shorter duration experiments, compound is added on the same day as the invasion assay, 1 hour prior to bacteria.
In another embodiment, HUVEC (Millipore, Billerica, Mass.) are cultured in EndoGRO LS Complete Media (Millipore) and are maintained at 5% CO2, 37° C., in 75 cm^2 vented cap flasks (Thermo-Fisher). For the invasion assay, cultured cells are plated at 1×10^4 cells/ml in 96-well culture dishes coated with Attachment Factor. The next day, cells are pretreated in culture medium containing the vehicle control, ML 141, or ML 141 structural analog. For compound delivery, ML 141 and structural analogs first are suspended into PEG at a concentration of 5 mM. The 5 mM solution is diluted to 1 mM in the solvent and then is diluted to the final concentration for each experiment in serum containing medium. For vehicle control treatment, the same volume of PEG as that of ML 141 or of ML 141 structural analog is added to the medium. The following day, the invasion assay is performed. Bacteria are added directly to medium containing vehicle control, ML 141, or the ML 141 structural analog.
Two days prior to the assay, TSB is inoculated with S. aureus (American Type Culture Collection #29213) and incubated overnight (225 rpm, 37° C.). Bacteria are subcultured the next day into fresh TSB. On the day of the assay, bacteria are pelleted (10000×g, 37° C., 3 min), are washed in saline, are pelleted as above, are resuspended in saline, then fluorescently labeled by incubation with rabbit anti-mouse IgG Alexa Fluor 488 (final concentration 8 μg/ml, RT, 20 min). Protein A, a S. aureus cell surface protein, avidly binds IgG thereby labeling the bacteria. Labeled bacteria are washed twice as above and are resuspended to 3×10^8 CFU/ml in saline. Host cells are incubated with the bacteria for 1 hour (1.2×10^8 CFU/ml for same-day recovery, 5×10^6 for recovery after 48 hours, 1.4×10^7 CFU/ml; 5% CO2, 37° C.). Following infection, extracellular bacteria are removed by extensive washes with PBS and incubation of the host cells with antimicrobials that have limited mammalian membrane permeability (lysostaphin, 20 μg/ml and gentamicin, 50 μg/ml; 45 min for same-day recovery studies, 48 hours for 2-day recovery studies; 5% CO2, 37° C.). To detect the level of infection using flow cytometry, cells that have been infected with fluorescently-labeled bacteria are washed extensively with PBS, lifted from 96-well plate by incubation with trypsin, washed extensively in FACS buffer (2% BSA/0.1% sodium azide/PBS), fixed (FACS buffer containing 0.74% formaldehyde), and are counted using an Accuri flow cytometer (BD, Franklin Lakes, N.J.). They are also lifted from culture dishes using cell scrapers, pelleted, fixed (1% BSA/0.74% formaldehyde/PBS), and are counted using an Accuri flow cytometer. For enumeration of the infecting bacteria, intracellular bacteria are released from host cells using 1% saponin/PBS (20 min, 5% CO2, 37° C.) and serial dilutions are plated on TSA (16 hours, 37° C.). […]

[2] = tested on: Staphylococcus aureus; assay: Assessment of bactericidal activity (HUVEC media); type: cell-based; details: for CFU (×10^8 ± SEM), Compound (10 μM): 1.2 × 10^8 CFU S. aureus, 1 h in HUVEC media
Experimental: FIG. 6B illustrates that neither cytotoxicity nor bactericidal activity is detected. Cultures of Staphylococcus aureus that had been incubated with the vehicle control DMSO or with ML 141 (1 hour, 37° C., 225 rpm) were serially diluted, plated onto blood agar, and incubated (18 hours, 37° C.). Colonies were enumerated and colony forming units (CFU)/ml determined. CFU/ml were not different amongst the groups (p>0.05 by t-test; n=2/treatment). […]

[3] = tested on: Human umbilical vein endothelial cells; assay: Cytotoxicity by propidium iodide exclusion, HUVEC; type: cell-based; details: for Cytotoxicity (in words): 10 μM, 18-20 h, Tables 4 and 5; for Mean fluorescence intensity (×10^4 ± SEM), Compound (10 μM): HUVEC pretreated 18-20 h
[4] = molecular target: CDC42 (Homo sapiens, UniProt P60953); assay: BODIPY-FL-GTP binding to CDC42
[5] = tested on: RAW 264.7 cells; assay: Cytotoxicity by propidium iodide, RAW 264.7 cells; type: cell-based; details: RAW 264.7 pretreated 18-20 h
[6] = tested on: Staphylococcus aureus; assay: Intracellular bacteria per host cell (HUVEC), fluorescence microscopy; type: cell-based; details: 10 μmol/L, 18-20 h, 100 cells counted
[7] = tested on: Staphylococcus aureus; assay: Assessment of bactericidal activity (DMEM, 10% fetal bovine serum); type: cell-based; details: 3.2 × 10^6 CFU S. aureus, 1 h in DMEM with 10% fetal bovine serum; head prints 20 mM

Chain of CDC42 (P60953 whole entry): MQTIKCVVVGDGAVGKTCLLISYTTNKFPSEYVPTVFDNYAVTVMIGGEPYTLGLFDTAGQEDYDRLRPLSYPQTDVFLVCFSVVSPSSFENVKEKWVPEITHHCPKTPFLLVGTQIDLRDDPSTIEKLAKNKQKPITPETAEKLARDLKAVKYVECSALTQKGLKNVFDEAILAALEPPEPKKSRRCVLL

| Structure (SMILES) | Internalized bacteria (% control ± SEM), Structural analog [1] | CFU (×10^8 ± SEM), Compound (10 μM) [2] | Mean fluorescence intensity (×10^4 ± SEM), Compound (10 μM) [3] | Mean fluorescence intensity (×10^3 ± SEM), Compound (10 μM) [5] | Intracellular bacteria/cell (±SEM), Structural analog [6] | CFU/mL (×10^9 ± SEM), Compound [7] | other results |
| --- | --- | --- | --- | --- | --- | --- | --- |
| COc1ccc(C2=NN(c3ccc(S(N)(=O)=O)cc3)C(c3ccc(Cl)cc3)C2)cc1 (stereo not shown) [RSM 04] | 11 ± 1% % control | 3.8 ± 0.8 ×10^8 CFU | 4.6 ± 0.2 ×10^4 |  |  |  | inhibition of invasion compared with ML 141 (Table 1) [1]: inhibited invasion more than ML 141; Cytotoxicity (in words) [3]: cytotoxic |
| NS(=O)(=O)c1ccc(N2N=C(c3ccccc3)CC2c2ccc3c(c2)OCO3)cc1 (stereo not shown) [RSM 05] |  | 8.0 ± 1.7 ×10^8 CFU | 3.9 ± 0.2 ×10^4 |  |  |  | IC50 [4]: 3.4 µM; activity at 10 µM [1]: 38 ± 3% |
| COc1ccc(C2=NN(c3ccc(S(N)(=O)=O)cc3)C(c3ccccc3)C2)cc1 (stereo not shown) [RSM 07] |  | 11.5 ± 1.1 ×10^8 CFU | 2.5 ± 0.4 ×10^4 |  |  |  | GTP binding (IC50) [4]: only slightly higher; IC50 [4]: 6.2 µM; activity at 10 µM [1]: 34 ± 2% |
| COCCOc1ccc(C2CC(c3ccccc3)=NN2c2ccc(S(N)(=O)=O)cc2)cc1 (stereo not shown) [RSM 11] | 61 ± 2% % control |  |  |  |  |  |  |
| COCCOc1ccc(C2CC(c3ccc(OC)cc3)=NN2c2ccc(S(N)(=O)=O)cc2)cc1 (stereo not shown) [RSM 12] | 57 ± 3% % control |  |  |  |  |  |  |
| COc1cc(C2CC(c3ccccc3)=NN2c2ccc(S(N)(=O)=O)cc2)cc(OC)c1OC (stereo not shown) [RSM 13] | 62 ± 5% % control |  |  |  |  |  |  |
| COc1ccc(C2=NN(c3ccc(S(N)(=O)=O)cc3)C(c3cc(OC)c(OC)c(OC)c3)C2)cc1 (stereo not shown) [RSM 14] | 71 ± 3% % control |  |  |  |  |  |  |
| COc1ccc(C2CC(c3ccccc3)=NN2c2ccc(S(N)(=O)=O)cc2)cc1OC (stereo not shown) [RSM 15] |  | 10.1 ± 1.0 ×10^8 CFU | 4.0 ± 0.4 ×10^4 |  |  |  | IC50 [4]: 2.2 µM; inhibition of invasion compared with ML 141 (Table 1) [1]: inhibited invasion more than ML 141; activity at 10 µM [1]: 45 ± 1% |
| COCCOc1ccc(C2=NN(c3ccc(S(N)(=O)=O)cc3)C(c3ccc(OC)cc3)C2)cc1 (stereo not shown) [RSM 17] | 67 ± 8% % control |  |  |  |  |  |  |
| COCCOc1ccc(C2=NN(c3ccc(S(N)(=O)=O)cc3)C(c3ccc(OCCOC)cc3)C2)cc1 (stereo not shown) [RSM 18] | 76 ± 7% % control |  |  |  |  |  |  |
| COc1ccc(C2C(C)C(c3ccccc3)=NN2c2ccc(S(N)(=O)=O)cc2)cc1 (stereo not shown) [RSM 19] |  | 9.4 ± 1.0 ×10^8 CFU | 2.6 ± 0.01 ×10^4 |  |  |  | IC50 [4]: 13.5 µM; activity at 10 µM [1]: 61 ± 2% |
| COCCOc1ccc(C2=NN(c3ccc(S(N)(=O)=O)cc3)C(c3ccc(Cl)cc3)C2)cc1 (stereo not shown) [RSM 20] |  | 10.0 ± 0.2 ×10^8 CFU | 2.1 ± 0.2 ×10^4 |  |  |  | IC50 [4]: 46.5 µM; activity at 10 µM [1]: 61 ± 4% |
| COc1ccc(C2C3Cc4ccccc4C3=NN2c2ccc(S(N)(=O)=O)cc2)cc1 (stereo not shown) [RSM 21] |  | 15.0 ± 1.1 ×10^8 CFU | 2.8 ± 0.09 ×10^4 |  |  |  | GTP binding (IC50) [4]: only slightly higher; IC50 [4]: 5.5 µM; activity at 10 µM [1]: 79 ± 3% |
| COc1ccc(C2(C)CC(c3ccccc3)=NN2c2ccc(S(N)(=O)=O)cc2)cc1 (stereo not shown) [RSM 26] | 40 ± 3% % control | 0.8 ± 1.1 ×10^8 CFU | 26.8 ± 2.1 ×10^4 |  |  |  | Bactericidal activity (in words) ([2]; S. aureus incubated 1 h with compound, FIG. 6B, Tables 6 and 7): bactericidal; Cytotoxicity (in words) [3]: cytotoxic |
| COc1ccc(CCC(=NNc2ccc(S(N)(=O)=O)cc2)c2ccccc2)cc1 [RSM 27] |  |  |  | 1.0 ± 0.1 ×10^3 | 4.4 ± 0.5 bacteria/cell | 2.4 ± 0.6 ×10^9 CFU/mL |  |
| CN(C)c1ccc(C2CC(c3ccccc3)=NN2c2ccc(S(N)(=O)=O)cc2)cc1 (stereo not shown) [RSM 28] |  |  |  | 11 ± 2.0 ×10^3 | 1.4 ± 0.3 bacteria/cell | 1.8 ± 0.05 ×10^9 CFU/mL |  |
| CC(=O)Nc1ccc(C2CC(c3ccccc3)=NN2c2ccc(S(N)(=O)=O)cc2)cc1 (stereo not shown) [RSM 29] |  |  |  | 4.2 ± 0.3 ×10^3 | 2.4 ± 0.4 bacteria/cell | 1.4 ± 0.1 ×10^9 CFU/mL |  |
| COc1ccc(C2CC(c3cccc(NC(C)=O)c3)=NN2c2ccc(S(N)(=O)=O)cc2)cc1 (stereo not shown) [RSM 30] |  |  |  | 2.4 ± 0.4 ×10^3 | 1.7 ± 0.3 bacteria/cell | 1.5 ± 0.02 ×10^9 CFU/mL |  |
| COc1ccc(C2CC(c3ccc(NC(C)=O)cc3)=NN2c2ccc(S(N)(=O)=O)cc2)cc1 (stereo not shown) [RSM 31] |  |  |  | 2.4 ± 0.3 ×10^3 | 1.4 ± 0.4 bacteria/cell | 0.9 ± 0.09 ×10^9 CFU/mL |  |
| CCC(=O)Nc1ccc(C2=NN(c3ccc(S(N)(=O)=O)cc3)C(c3ccc(OC)cc3)C2)cc1 (stereo not shown) [RSM 32] |  |  |  | 2.8 ± 1.1 ×10^3 | 5.5 ± 0.4 bacteria/cell | 2.4 ± 0.3 ×10^9 CFU/mL |  |
| CCC(=O)Nc1cccc(C2=NN(c3ccc(S(N)(=O)=O)cc3)C(c3ccc(OC)cc3)C2)c1 (stereo not shown) [RSM 33] |  |  |  | 2.9 ± 1.1 ×10^3 | 5.4 ± 0.4 bacteria/cell | 1.3 ± 0.04 ×10^9 CFU/mL |  |
